Test results reported in patent US11590119B2, “(S)-2-(1-(5-(cyclohexylcarbamoyl)-6-(propylthio)pyridin-2-yl)piperidin-3-yl)acetic acid for use in medicine” (University of Leeds, priority 2019, dated 2023).

Key:
11β-HSD = details: mice, topical treatment, oral corticosterone; cited from earlier work
11β-HSD1 = 11β-HSD1 (Homo sapiens, UniProt P28845); test: 11β-HSD1 activity (conversion of cortisone to cortisol) in primary human dermal fibroblasts; assay type: cell-based; parameters: from tissue; host or cells: adipose tissue of abdominally obese healthy adult male volunteers
Method: FIG. 5: 11β-HSD1 activity in primary human dermal fibroblasts.
In order to investigate the effects, prevalence and relevance of 11β-HSD1 in human skin and diabetic wound healing the effects of the proinflammatory cytokine, IL-1β on human dermal fibroblasts (HDFs) in culture was assessed in the preclinical setting. […] In these experiments RU486 (mifepristone) was used as a competitive cortisol antagonist.

11β-HSD1 mRNA expression = 11β-HSD1 mRNA expression in cultured human dermal fibroblasts; assay type: cell-based; details: HDFs in culture; cortisol 24 h; IL-1β 10 ng/mL; cortisol 100 nM in combination
HUVEC tubule formation = test: HUVEC tubule formation, in vitro model of angiogenesis; assay type: cell-based, human; details: IL-1β 10 ng/ml; cortisone 200 nM; AZD4017 1 μM with cortisone; biological n=1

Chain of 11β-HSD1 (P28845 whole entry): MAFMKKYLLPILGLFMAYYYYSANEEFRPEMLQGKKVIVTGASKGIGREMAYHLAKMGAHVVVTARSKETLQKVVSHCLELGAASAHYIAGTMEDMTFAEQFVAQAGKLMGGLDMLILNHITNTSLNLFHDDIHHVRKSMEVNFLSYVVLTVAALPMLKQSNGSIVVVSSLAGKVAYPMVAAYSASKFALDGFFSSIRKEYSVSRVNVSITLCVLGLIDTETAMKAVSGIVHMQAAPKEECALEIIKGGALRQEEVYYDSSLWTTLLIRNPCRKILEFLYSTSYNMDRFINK

Row | Compound | effect on delay in wound healing caused by corticosteroid excess (11β-HSD) | inhibition of conversion of E to F (11β-HSD1; 25 μM, 18 h, HDFs pretreated with IL-1β and cortisol) | increase in 11β-HSD1 mRNA expression (11β-HSD1 mRNA expression) [fold] | tubule formation (HUVEC tubule formation) | increase in conversion of cortisone (E) to cortisol (F) relative to untreated HDFs (11β-HSD1; 24 h IL-1β pretreatment, conversion over 48 h) [fold]
1 | CC1(C)[C@@H](OC(=O)CCC(=O)O)CC[C@]2(C)[C@H]3C(=O)C=C4[C@@H]5C[C@@](C)(C(=O)O)CC[C@]5(C)CC[C@@]4(C)[C@]3(C)CC[C@@H]12 [carbenoxolone, reference compound] | reverse the delay in wound healing | did not significantly inhibit |  |  | 
2 | C[C@]12CCC(=O)C=C1CC[C@@H]1[C@@H]2[C@@H](O)C[C@@]2(C)[C@H]1CC[C@]2(O)C(=O)CO [cortisol, reference compound] |  |  | 6 |  | 
3 | C[C@]12CCC(=O)C=C1CC[C@@H]1[C@@H]2C(=O)C[C@@]2(C)[C@H]1CC[C@]2(O)C(=O)CO [cortisone, reference compound] |  |  |  | blocked | 
4 | IL-1β: interleukin 1β (pro-inflammatory cytokine) |  |  | 10 | stimulate tubule formation | 6
